Biological target: T1, PPARδ (Homo sapiens, UniProt Q03181)
T1 construct: expressed in transfected cells; host or cells: Hela cells
T1 sequence (Q03181 1-441): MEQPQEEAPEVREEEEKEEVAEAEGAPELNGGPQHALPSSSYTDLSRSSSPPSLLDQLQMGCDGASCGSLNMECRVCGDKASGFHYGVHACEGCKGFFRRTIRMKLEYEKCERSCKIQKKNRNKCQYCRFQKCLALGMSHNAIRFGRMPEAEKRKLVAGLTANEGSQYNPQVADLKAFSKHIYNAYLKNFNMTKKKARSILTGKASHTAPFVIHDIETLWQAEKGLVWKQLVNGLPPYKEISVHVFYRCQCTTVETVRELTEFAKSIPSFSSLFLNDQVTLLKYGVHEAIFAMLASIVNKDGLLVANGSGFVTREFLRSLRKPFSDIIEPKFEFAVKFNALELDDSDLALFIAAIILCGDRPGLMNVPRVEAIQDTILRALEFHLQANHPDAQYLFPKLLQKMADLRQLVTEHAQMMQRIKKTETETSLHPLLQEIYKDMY
Assay: Hela cell/luciferase reporter gene method, PPARδ agonist activity
Format: cell-based
Conditions: for EC50: Hela cells, pPPRE3-TK-Luciferase reporter, 24 hrs incubation, read-out: agonistic activity on PPARδ (EC50)
Description: This example measures the biological activity of a PPAR agonist using the Hela cell/luciferase reporter gene method.
The target plasmids PCMV PPARα (Ampicillin+), PCMV PPARγ (Ampicillin+), PCMV PPARδ (Ampicillin+), and pPPRE3-TK-Luciferase (Ampicillin+) were introduced into DH5a competent cells by heat shock treatment, respectively. After being incubated for 1 hour at 37° C. with shaking (180 rpm), the cells were inoculated on LB agar solid medium containing antibiotic Ampicillin, and invertedly cultured at 37° C. for 12-16 hours. Then the monoclonal colony cultured on the medium was taken and inoculated into LB liquid medium for expanded culture. […] The plasmid obtained by centrifugation was suspended in TE buffer, and the plasmid concentration was measured and the mixture was stored at −20° C. Hela cells in the exponential phase were seeded in 6-well plates (8-10^5 cells/well), and after 6-8 hours of culture, the cells were transfected using Lipofectamine® 3000 Transfection Reagent (Invitrogen; #L3000015). A plasmid containing a PPAR binding site (peroxisome proliferator response element, PPRE) and a firefly luciferase gene (pPPRE3-TK-Luciferase) and PPAR expression vector were co-transfected into a Hela cell with a total amount of plasmid DNA of 2.5 ug (the mass ratio of each PPAR expression vector is pPPRE:PPARα=6:1, pPPRE:PPARδ=8:1, and pPPRE:PPARγ=2:1) to construct a drug screening cell model for PPAR agonists. PPAR was binded to the ligand and then binded to the peroxisome proliferator response element (PPRE), thereby initiating downstream firefly luciferase expression and its expression intensity was directly proportional to the degree of PPAR activation. The cells after 24 hours transfection were prepared into a cell suspension with a cell concentration of […] by a complete culture solution, and seeded into a 96-well plate with 100 ul per well. After overnight culture, the medium was changed to a medium containing 1% FBS. 10 mM candidate compound stock (1000×) were 4-fold diluted in DMSO for 8 points, then supplemented with medium containing 1% FBS to a final concentration of 50 uM (5×) by addition of 25 μl of 5× compound diluent to each well in different concentration gradients and incubated under 37° C., 5% CO2 incubator for 24 hrs. The 96-well plate was taken out and 30 μl of Bright-Glo™ Luciferase Assay System (Promega #E2620) was added to each well. The Luciferase luminescence intensity was measured by a SynergyH1 full-function microplate detector. The obtained data was used to calculate EC50 using GraphPad Prism 5.0 software to determine the biological activity of the compound.

Row | Compound | EC50 [µM] | increased activity for activation of PPARδ compared with Elafibranor (compared with Elafibranor) [fold]
1 | CSc1ccc(C(=O)/C=C/c2cc(C)c(OC(C)(C)C(=O)O)c(C)c2)c2occc12 [Compound 5, (E)-2-(2,6-dimethyl-4-(3-(4-(methylthio)benzofuran-7-yl)-3-oxoprop-1-en-1-yl)phenoxy)-2-methylpropanoic acid] | 0.036 | –
2 | CCSc1ccc(C(=O)/C=C/c2cc(C)c(OC(C)(C)C(=O)O)c(C)c2)c2occc12 [Compound 6, (E)-2-(4-(3-(4-(ethylthio)benzofuran-7-yl)-3-oxoprop-1-en-1-yl)-2,6-dimethylphenoxy)-2-methylpropanoic acid] | 0.119 | –
3 | CSc1ccc(C(=O)/C=C/c2cc(C)c(OC(C)(C)C(=O)O)c(C)c2)c2ccoc12 [Compound 27, (E)-2-(2,6-dimethyl-4-(3-(7-(methylthio)benzofuran-4-yl)-3-oxoprop-1-en-1-yl)phenoxy)-2-methylpropanoic acid] | 0.604 | –
4 | Cc1cc(/C=C/C(=O)c2ccc3c(c2)CCS3)cc(C)c1OC(C)(C)C(=O)O [Compound 36, (E)-2-(4-(3-(2,3-dihydrobenzo[b]thiophen-5-yl)-3-oxoprop-1-en-1-yl)-2,6-dimethylphenoxy)-2-methylpropanoic acid] | 0.12 | –
5 | COc1ccc2cc(C(=O)/C=C/c3cc(C)c(OC(C)(C)C(=O)O)c(C)c3)oc2c1 [Compound 43, (E)-2-(4-(3-(6-methoxybenzofuran-2-yl)-3-oxoprop-1-en-1-yl)-2,6-dimethylphenoxy)-2-methylpropanoic acid] | 0.335 | –
6 | CSc1ccc2cc(C(=O)/C=C/c3cc(C)c(OC(C)(C)C(=O)O)c(C)c3)oc2c1 [Compound 51, (E)-2-(2,6-dimethyl-4-(3-(6-(methylthio)benzofuran-2-yl)-3-oxoprop-1-en-1-yl)phenoxy)-2-methylpropanoic acid] | 0.0649 | 2

More lines, now with the values ahead:

Row | EC50 [µM] | increased activity for activation of PPARδ compared with Elafibranor (compared with Elafibranor) [fold] | Compound
7 | 0.614 | – | CSc1cccc2oc(C(=O)/C=C/c3cc(C)c(OC(C)(C)C(=O)O)c(C)c3)cc12 [Compound 60, (E)-2-(2,6-dimethyl-4-(3-(4-(methylthio)benzofuran-2-yl)-3-oxoprop-1-en-1-yl)phenoxy)-2-methylpropanoic acid]
8 | 0.21 | – | CSc1ccc2c(C)c(C(=O)/C=C/c3cc(C)c(OC(C)(C)C(=O)O)c(C)c3)oc2c1 [Compound 62, (E)-2-(2,6-dimethyl-4-(3-(3-methyl-6-(methylthio)benzofuran-2-yl)-3-oxoprop-1-en-1-yl)phenoxy)-2-methylpropanoic acid]
9 | 0.205 | – | CCc1c(C(=O)/C=C/c2cc(C)c(OC(C)(C)C(=O)O)c(C)c2)oc2cc(SC)ccc12 [Compound 63, (E)-2-(4-(3-(3-ethyl-6-(methylthio)benzofuran-2-yl)-3-oxoprop-1-en-1-yl)-2,6-dimethylphenoxy)-2-methylpropanoic acid]
10 | 0.144 | – | CCSc1ccc2c(C)c(C(=O)/C=C/c3cc(C)c(OC(C)(C)C(=O)O)c(C)c3)oc2c1 [Compound 74, (E)-2-(4-(3-(6-(ethylthio)-3-methylbenzofuran-2-yl)-3-oxoprop-1-en-1-yl)-2,6-dimethylphenoxy)-2-methylpropanoic acid]
11 | 3.64 | – | CSc1ccc2cc(C(=O)/C=C/c3cc(C)c(OC(C)(C)C(=O)O)c(C)c3)sc2c1 [Compound 81, (E)-2-(2,6-dimethyl-4-(3-(6-(methylthio)benzo[b]thiophen-2-yl)-3-oxoprop-1-en-1-yl)phenoxy)-2-methylpropanoic acid]
12 | 0.0871 | – | CSc1ccc2cc(C(=O)/C=C/c3cc(Cl)c(OC(C)(C)C(=O)O)c(Cl)c3)oc2c1 [Compound 100, (E)-2-(2,6-dichloro-4-(3-(6-(methylthio)benzofuran-2-yl)-3-oxoprop-1-en-1-yl)phenoxy)-2-methylpropanoic acid]
13 | 0.164 | – | CSc1ccc2c(C)c(C(=O)/C=C/c3cc(Cl)c(OC(C)(C)C(=O)O)c(Cl)c3)oc2c1 [Compound 103, (E)-2-(2,6-dichloro-4-(3-(3-methyl-6-(methylthio)benzofuran-2-yl)-3-oxoprop-1-en-1-yl)phenoxy)-2-methylpropanoic acid]

From patent US11306102B2, “1,3-di-substituted ketene compound and application thereof” (BEBETTER MED INC., priority 2017, dated 2022)
